According to ChEMBL document CHEMBL5154872 (Eur J Med Chem, 2022):
pIC50, pKd: −log10 of the molar value. Values after ≈ are worked out from the molar mass of the structure shown.

How the values were obtained:
[1] = biological target: T1, Programmed cell death 1 ligand 1 (Homo sapiens, UniProt Q9NZQ7); assay: Binding affinity towards His-tagged recombinant human PD-L1 measured by MicroScale Thermophoresis (MST) assay
[2] = 1-Octanol/phosphate buffered-saline distribution coefficient, logD of compound at pH 7.4 measured after 2 hrs by LC-MS analysis; type: physicochemical
[3] = Stability in CD-1 mouse plasma assessed as half-ife at 10 uM; type: ADME, cell-free
[4] = Solubility in PBS at pH 7.4; type: physicochemical
[5] = biological target: T1, Programmed cell death 1 ligand 1; assay: Binding affinity towards His-tagged recombinant human PD-L1 measured by MST dimerization binding assay; type: single protein
[6] = biological target: Programmed cell death protein 1/Programmed cell death 1 ligand 1 (Homo sapiens, UniProt Q9NZQ7); assay: Inhibition of human PD-1/PD-L1 interaction in CHO-K1 cells transfected with PD-1-YFP/SHP-2-CFP and measured by FRET assay; type: cell-based
Chain of Programmed cell death protein 1/Programmed cell death 1 ligand 1 (Q15116 whole entry): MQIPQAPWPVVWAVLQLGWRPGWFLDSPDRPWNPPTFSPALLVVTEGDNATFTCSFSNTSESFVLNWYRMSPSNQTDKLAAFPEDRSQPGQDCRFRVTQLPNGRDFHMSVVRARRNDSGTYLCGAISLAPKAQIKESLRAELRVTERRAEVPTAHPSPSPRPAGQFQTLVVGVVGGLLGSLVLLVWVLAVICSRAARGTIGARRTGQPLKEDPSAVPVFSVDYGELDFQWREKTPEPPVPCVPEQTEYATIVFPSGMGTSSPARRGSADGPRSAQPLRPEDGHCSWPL
Chain of Programmed cell death protein 1/Programmed cell death 1 ligand 1 (Q9NZQ7 whole entry): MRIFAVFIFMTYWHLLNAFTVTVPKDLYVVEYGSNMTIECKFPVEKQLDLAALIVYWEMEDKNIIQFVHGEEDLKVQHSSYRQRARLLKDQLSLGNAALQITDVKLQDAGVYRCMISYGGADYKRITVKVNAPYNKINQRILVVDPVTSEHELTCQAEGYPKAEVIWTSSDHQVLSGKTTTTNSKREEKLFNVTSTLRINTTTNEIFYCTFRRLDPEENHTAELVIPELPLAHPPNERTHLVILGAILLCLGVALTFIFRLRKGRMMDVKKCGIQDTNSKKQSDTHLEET

[7] = Reactivation of mouse CTLL-2 cells pretreated with human PD-L1 assessed as increase in cell proliferation and measured by flow cytometry assay; type: functional, cell-based

T1 sequence (Q9NZQ7 whole entry): as above

Structure (SMILES): CCC1=NN(c2ccccn2)C(=O)C1
- pKd [1]: < 3.30

Structure (SMILES): O=C1CC(c2cccc(Cl)c2)=NN1c1ccccn1
- pKd [1]: < 3.30

Structure (SMILES): Cc1ccccc1C1=NN(c2ccccn2)C(=O)C1
- pKd [1]: < 3.30

Structure (SMILES): Cc1cccc(C2=NN(c3ccccn3)C(=O)C2)c1
- pKd [1]: < 3.30

Structure (SMILES): CCCCC1=NN(c2ccccn2)C(=O)C1
- pKd [1]: < 3.30

Structure (SMILES): COc1ccc(C2=NN(c3ccccn3)C(=O)C2)cc1OC
- logD at 2 h [2]: 2.19
- half-life at 10 µM [3]: 30 min
- solubility [4]: 183 µM (≈ 54.4 µg/mL)
- pKd [5]: 9.15
- pIC50 [6]: 8.14
- pIC50 [7]: 8.39
- pKd [1]: 8.92

Structure (SMILES): COc1ccc(C2=NN(c3ccccn3)C(=O)C2)cc1
- logD at 2 h [2]: 2.82
- half-life at 10 µM [3]: 12 min
- solubility [4]: 199 µM (≈ 53.2 µg/mL)
- pKd [5]: 8.70
- pIC50 [7]: 7.12

Structure (SMILES): O=C1CC(c2ccc(Cl)c(Cl)c2)=NN1c1ccccn1
- pKd [1]: 6.23

Structure (SMILES): CC(C)(C)C1=NN(c2ccccn2)C(=O)C1
- pKd [1]: < 3.30

Structure (SMILES): CCCC1=NN(c2ccccn2)C(=O)C1
- pKd [1]: < 3.30

Structure (SMILES): O=C1CC(c2ccccc2Cl)=NN1c1ccccn1
- pKd [1]: < 3.30

Structure (SMILES): O=C1CC(C23CC4CC(CC(C4)C2)C3)=NN1c1ccc(Cl)cc1Cl
- logD at 2 h [2]: 4.28
- half-life at 10 µM [3]: 31 min
- solubility [4]: 1.9 µM (≈ 0.69 µg/mL)
- pKd [5]: 7.62
- pIC50 [6]: 8.05
- pIC50 [7]: 7.27

Structure (SMILES): O=C1CC(c2ccccn2)=NN1c1ccccn1
- pKd [1]: < 3.30

Structure (SMILES): Cc1ccc(C2=NN(c3ccccn3)C(=O)C2)cc1
- pKd [1]: 5.96

Structure (SMILES): COc1ccccc1C1=NN(c2ccccn2)C(=O)C1
- logD at 2 h [2]: 2.56
- half-life at 10 µM [3]: 10.9 min
- solubility [4]: 80.9 µM (≈ 21.6 µg/mL)
- pKd [5]: 7.34
- pIC50 [7]: 7.85

Structure (SMILES): O=C1CC(c2ccccc2F)=NN1c1ccccn1
- pKd [1]: < 3.30

Structure (SMILES): O=C1CC(c2ccc(C(F)(F)F)cc2)=NN1c1ccccn1
- pIC50 [6]: 6.84
- pKd [1]: 6.81

Structure (SMILES): CC1=NN(c2ccccn2)C(=O)C1
- logD at 2 h [2]: 0.85
- half-life at 10 µM [3]: 16 min
- solubility [4]: > 200 µM
- pKd [5]: 7.28
- pIC50 [7]: 6.99

Structure (SMILES): CC(C)C1=NN(c2ccccn2)C(=O)C1
- pKd [1]: < 3.30
